By IC50 is commonly meant the concentration at which inhibition is half-maximal.

The source of these data is US8895550B2, “Triazolopyridine compounds as PIM kinase inhibitors” (Array BioPharma Inc., priority 2008, dated 2014).

SMILES strings stand for the structures.

What all share (type): biochemical
In assay [1] the target is T1, GST-tagged recombinant full-length human Pim-2 (Homo sapiens, UniProt Q9P1W9).
T1 construct: GST-tagged recombinant full-length human Pim-2; GST
The assay can be described thus: PIM-2 Assay (as Example A with GST-tagged recombinant full-length human Pim-2). The following applies: 4 μM ATP, 1.0 μM PIM2tide, 1.5 nM Pim-2; high dose 10 μM. The procedure:
(§1) The assay for the determination of PIM-1 activity is based on the incorporation of [^33P]PO4 from [γ-^33P]ATP into PIM2tide substrate and capture of the radiolabeled peptide onto a Whatman P81 (phosphocellulose) filter plate. The amount of radiolabeled product is then measured by liquid scintillation counting. The final buffer conditions were as follows: 20 mM K^+MOPS, pH 7.4, 10 mM MgCl2, 0.005% Tween-20, 1 mM DTT. Assay mixtures contained 35 μM [γ-^33P]ATP (20 μCi/mL), 7.5 μM PIM2tide and 0.25 nM PIM-1 in a total volume of 50 μL. Incubations were carried out for 60 min at 22° C. and quenched with 75 μL, of 200 mM H3PO4, filtered through a Whatman P81 plate and washed (1×200 μL and 5×100 μL) with 200 mM H3PO4. Fifty μL of liquid scintillation cocktail were then added per well, and the plate was counted for 30 s/well using a TopCount NXT.
(§2) Compounds were prepared at 50× the final concentration in DMSO by conducting 3-fold serial dilutions from a 500-μM intermediate dilution to give a 10-point dosing curve having a high dose of 10 μM. One-μL aliquots of these were then transferred to the assay mixtures above to give a final concentration of DMSO of 2%. A standard or reference compound was typically included on each assay plate to validate that plate. For each plate, percent of control (POC) values were calculated for each well. IC50's were estimated from the POC's using a standard 4-parameter logistic model. The IC50 is defined as the concentration of inhibitor at which the POC equals 50 for the fitted curve.
Assay was performed as described in Example A, using 4 μM [γ-^33P]ATP (20 μCi/mL), 1.0 μM PIM2tide and 1.5 nM GST-tagged recombinant full-length human Pim-2 in place of PIM-1.

The next assay deals with recombinant rat PIM-3 (Rattus norvegicus, UniProt O70444). The assay can be described thus: PIM-3 Assay (as Example A with recombinant rat PIM-3). The following applies: 30 μM ATP, 3.75 μM PIM2tide, 0.5 nM PIM-3; high dose 10 μM. As to the method:
as §1, §2
Assay was performed as described in Example A, using 30 μM [γ-^33P]ATP (20 μCi/mL), 3.75 μM PIM2tide and 0.5 nM recombinant rat PIM-3 in place of PIM-1.

A further assay concerns the target PIM-1 (Homo sapiens, UniProt P11309). The assay is described as follows: Enzyme PIM-1 Assay (radiometric [33P]ATP incorporation into PIM2tide, filter plate). The following applies: 35 μM ATP, 7.5 μM PIM2tide, 0.25 nM PIM-1, 60 min at 22° C.; high dose 10 μM. As to the method:
as §1, §2

T1 sequence (Q9P1W9 whole entry): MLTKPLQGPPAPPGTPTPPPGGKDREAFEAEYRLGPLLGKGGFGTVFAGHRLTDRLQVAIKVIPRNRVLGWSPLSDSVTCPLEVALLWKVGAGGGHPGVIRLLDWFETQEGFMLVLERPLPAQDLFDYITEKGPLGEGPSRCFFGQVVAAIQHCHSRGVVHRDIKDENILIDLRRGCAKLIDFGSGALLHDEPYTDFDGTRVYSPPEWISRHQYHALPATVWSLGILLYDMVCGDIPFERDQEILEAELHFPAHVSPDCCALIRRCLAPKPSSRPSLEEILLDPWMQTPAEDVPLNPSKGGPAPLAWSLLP
Sequence of PIM-1 (P11309 whole entry, species assumed): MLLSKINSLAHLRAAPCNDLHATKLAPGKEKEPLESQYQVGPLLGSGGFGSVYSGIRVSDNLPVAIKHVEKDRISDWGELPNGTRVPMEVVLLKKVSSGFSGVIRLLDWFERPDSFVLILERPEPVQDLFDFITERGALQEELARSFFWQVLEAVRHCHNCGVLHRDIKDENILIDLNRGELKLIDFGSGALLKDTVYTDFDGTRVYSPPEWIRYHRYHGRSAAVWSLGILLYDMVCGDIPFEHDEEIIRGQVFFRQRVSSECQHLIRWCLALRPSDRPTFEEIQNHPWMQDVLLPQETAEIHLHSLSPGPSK

In the case of `C[C@@H]1CN(c2cccc3ccc(-c4nnc5ccccn45)nc23)CCN1` [Example 7, (R)-2-([1,2,4]Triazolo[4,3-a]pyridin-3-yl)-8-(3-methylpiperazin-1-yl)quinoline], the IC50 in assay [1] worked out at 3590 nM; at recombinant rat PIM-3, 105 nM; at PIM-1, 17 nM.
